Laboratory results: PubChem BioAssay (NCI)
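Following 48 hours of exposure in 96-well plates, responses at five concentrations were used to interpolate endpoints linearly. TGI: concentration producing complete growth inhibition.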

Columns and labels:
Assay in all cases: NCI-60 cell line screen, 48 h
[1] = tested on: TK-10 renal
[2] = tested on: HOP-92 NSCLC
[3] = tested on: OVCAR-8 ovarian
[4] = tested on: K-562 leukemia
[5] = tested on: SF-295 CNS
[6] = tested on: ACHN renal
[7] = tested on: T-47D breast
[8] = tested on: SK-MEL-28 melanoma
[9] = tested on: MDA-MB-435
[10] = tested on: UO-31 renal
[11] = tested on: SW-620 colon
[12] = tested on: A549 NSCLC
[13] = tested on: HCC-2998 colon
[14] = tested on: HS 578T breast
[15] = tested on: SR leukemia
[16] = tested on: RPMI-8226 leukemia
[17] = tested on: OVCAR-5 ovarian
[18] = tested on: NCI-H23 lung
[19] = tested on: HL-60(TB) leukemia
[20] = tested on: RXF 393 renal

SMILES	TGI [1] [µM]	TGI [2] [µM]	TGI [3] [µM]	TGI [4] [µM]	TGI [5] [µM]	TGI [6] [µM]	TGI [7] [µM]	TGI [8] [µM]	TGI [9] [µM]	TGI [10] [µM]	TGI [11] [µM]	TGI [12] [µM]	TGI [13] [µM]	TGI [14] [µM]	TGI [15] [µM]	TGI [16] [µM]	TGI [17] [µM]	TGI [18] [µM]	TGI [19] [µM]	TGI [20] [µM]
O=C1C=CC(=O)c2c(O)c(NCCN3CCOCC3)c(Cl)c(O)c21	> 10	6.39	> 10	7.59	3.41	7.51	4.51	2.98	4.12	3.96	2.91	4.96	3.35	6.54						
COc1ccc2[nH]c3c(c2c1)CCc1c(OC)cccc1-3	> 100	> 100	> 100	> 100	> 100	> 100	> 100	> 100	> 100	> 100	> 100	> 100	> 100	> 100	> 100	> 100	> 100	> 100		
COC(=O)[C@H](Cc1ccccc1)NC(=O)OCC1OC(n2cc(C)c(=O)[nH]c2=O)CC1N=[N+]=[N-] (stereo partly drawn)	> 100	> 100	> 100	> 100	> 100	> 100	> 100		> 100	> 100	> 100	> 100	> 100	> 100		> 100	> 100	> 100	> 100	> 100
O=P(O)(O)c1ccc2c(c1)OCCOCCOCCOCCO2	> 100		> 100	> 100	> 100	> 100	> 100	> 100	> 100	> 100	> 100	> 100	> 100	> 100	> 100	> 100		> 100	> 100	
CCCC(=O)Nc1cc(/C=C/C(=O)N2CC(CCl)c3ccc([N+](=O)[O-])cc32)n(C)c1 (stereo not drawn)	> 100		> 100	> 100	> 100	> 100	> 100	> 100	> 100	> 100	> 100	> 100	> 100	> 100	> 100	> 100	> 100	> 100		> 100
O=C(O)CN1CCN2CCCCCCCCN(CC1)CCN(CC(=O)O)CC2	> 100	> 100	> 100	> 100	> 100	> 100	> 100	> 100	> 100	> 100	> 100	> 100		> 100		> 100	> 100		30.7	
Cc1ccc(N2C=Nn3c(nc4sc5c(c4c3=O)CCCC5)C2)cc1	> 100	> 100	> 100	> 100	> 100	> 100	> 100	> 100	> 100	> 100	> 100	> 100	> 100	92		> 100	> 100	> 100		> 100
C[C@H](CCC(=O)O)[C@H]1CC[C@H]2[C@@H]3[C@H](O)[C@H](O)[C@@H]4C[C@H](O)CC[C@]4(C)[C@H]3CC[C@]12C	> 100	> 100	> 100	> 100		> 100	> 100	> 100	> 100	> 100	> 100	> 100	> 100	> 100		> 100	> 100	> 100	> 100	> 100
C[n+]1c2ccccc2n2c3ccccc3c(NCc3ccco3)c(C#N)c21	11.3			> 21.1	16.6	9.08	> 28.7	5.75	4.34	7.63	4.01	> 100	3.36	10.8			12	8.92	8.69	6.21
CC1(C)CC[C@]2(C)[C@@H](O)C[C@]3(C)C(=CC[C@@H]4[C@@]5(C)CC[C@H](O)C(C)(C)[C@@H]5CC[C@]43C)[C@@H]2C1	93.2	42.3	74.3	> 100	> 100	> 100	67.7	> 100	> 100	> 100	> 100	> 100		99.3			> 100	> 100	> 100	22.4
Cc1ccc2c(ccc3ncc(CNc4ccc(NS(C)(=O)=O)cc4)c32)[nH]1	> 100	90.3	81.1	46.3	59.2	> 100	47.7	53.7	31.5	74.7	> 100	66		59.9	50.8	41.3	53.8	58.7	65.3	21.7
CCc1cc2c(cc1C(=O)CCC(=O)O)CC1(C2)Cc2cc(CC)c(C(=O)CCC(=O)O)cc2C1	> 100	> 100	> 100	> 100	> 100	> 100	> 100	> 100	> 100	> 100	> 100	> 100	> 100	> 100		> 100	> 100	> 100	> 100	> 100
Cc1ccc(F)c2[nH]c(-c3ccccc3)cc(=O)c12	> 100		> 100	> 100	43.5	> 100	> 100	> 40.1	> 100	> 50.1	> 100	> 53.5	> 100	> 100	> 100	> 100	> 31.3	> 65.8	> 100	21.5
COC(=O)c1ccc(NCC2=CC(=O)C=CC2=O)cc1O	27.9	9.27	30.8	> 100	32.3	26.8	47.1	> 100	82.9	25.4	> 100	> 100		> 100	> 100		36.9	36.6		44
Cc1ccc(C(=O)C2C=C(c3ccc(C)cc3)SC3C=CCC32)cc1 (stereo not drawn)	53.3	34	32.3	> 100	39.9	47.7	50.6	33.9	30	29.6	29.8	57.1		73.8	58.2	80.1	44.4	53	> 100	37.7
CCOP(=O)(OCC)/C(=C\n1ccc(=O)[nH]c1=S)C(=O)OC			> 100	> 100	> 100	> 100	> 100	> 100	> 100	> 100	> 100	> 100	> 100	> 100	> 100	> 100	> 100	> 100	> 100	> 100
Nc1nncc2n[nH]nc12	> 100		> 100		> 100	> 100	> 100	> 100	> 100	> 100	> 100	> 100		> 100	> 100	> 100	> 100	> 100	> 100	> 100
CN1/C(=C\N=O)C(C)(C)N(O)C1(C)C	> 100	> 100	> 100	> 100	> 100	> 100	> 100	> 100	> 100	> 100	> 100	> 100	> 100	> 100	> 100	> 100	> 100	> 100	> 100	
COP(=O)(/C=C/C(NC(=O)C(Cl)(Cl)Cl)c1ccccc1)OC (stereo not drawn)	> 100	> 100	> 100	> 100	> 100	> 100	> 100	> 100	> 100	> 100	> 100	> 100	> 100	> 100		> 100	> 100	> 100	> 100	> 100
C1=C2C3=[N+](CCCC3)CC2Cc2sccc21 (stereo not drawn)	> 100	> 100	> 100	> 100	> 100	> 100	> 100	> 100	> 100	> 100	> 100	> 100		> 100			> 100	> 100	> 100	> 100
COc1ccc(/C(=N/OCCCC(=O)O)c2cccs2)cc1	> 100	> 100	> 100	> 100	> 100	> 100	> 100		> 100	> 100	> 100	> 100	> 100	> 100		> 100	> 100	> 100	> 100	> 100
CC(=O)OCCCCn1nncc1Cn1ccc(=O)n(Cc2cnnn2CCCCOC(C)=O)c1=O	> 100	> 100	> 100		> 100	> 100	> 100	> 100	> 100	> 100	> 100	> 100	> 100	> 100		> 100	> 100	> 100		> 100
Cc1cc(C)n(CN(CCCCO)Cn2nc(C)cc2C)n1	> 100	81	41.7	52.7	> 100	39.4	66.5	39.3	38.4	69.1	63	> 100		> 100	28.7	20.3	51.1	50.6	79	39
COc1ccccc1N1C(=O)CSC1c1cccc(Oc2ccccc2)c1 (stereo not drawn)	48.4	26.5	37.5	70.2	41.1	38.2	58.1	34.6	32	32.9	56.6	47.4		44.5	70.5		50.4	52.9	72.6	33.6
Cc1cn(CC2(CO)CCC2)c(=O)[nH]c1=O	> 100		> 100	> 100	> 100	> 100	> 100	> 100	> 100	> 100	> 100	> 100	> 100	> 100	> 100	> 100	> 100	> 100	> 100	> 100
Cc1cc2c3c(nc2c2cc[nH]c(C)c12)CCCC3	4.64	7.3	4.96	5.65	3.93	15	4.53	3.57	3.63	6.91	3.79	4.53	3.43	4.41	4.29	4.56	13.6	10.4	3.76	
